# Data: US10947271B2, “Antibacterial agents” (THE UNIVERSITY OF QUEENSLAND, priority 2014, dated 2021)
# Key:
# Format in all cases: cell-based
# Settings in all cases: 24 h incubation, visual reading
# [1] = test system: Staphylococcus aureus MRSA ATCC 43300; test: MIC assay, S. aureus MRSA ATCC 43300
# Procedure, shortened: (§1)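 Mid-log cultures in MHB were added at 5×10e5 CFU/mL to compounds diluted twofold from 8 to 0.003 μg/ml. Visual inspection after 24 h incubation at 37° C. gave the MIC, the lowest concentration without visible growth.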
# [2] = test system: Streptococcus pneumoniae MDR ATCC 700677; test: MIC assay, S. pneumoniae MDR ATCC 700677
# Procedure, shortened: as §1
# [3] = test system: Enterococcus faecium MDR Van A ATCC 51559; test: MIC assay, E. faecium MDR Van A ATCC 51559
# Procedure, shortened: as §1
SMILES,Minimum Inhibitory Concentration (MIC) Staph. aureus ATCC43300 [1],Minimum Inhibitory Concentration (MIC) S. pneumoniae ATCC 700677 [2],Minimum Inhibitory Concentration (MIC) E. faecium ATCC51559 [3]
CNC(=O)C(CCCCNC(=O)C1NC(=O)C2NC(=O)C(NC(=O)C3NC(=O)C(CC(N)=O)NC(=O)C(NC(=O)C(CC(C)C)NC)C(O)c4ccc(c(Cl)c4)Oc4cc3cc(c4OC3OC(CO)C(O)C(O)C3OC3CC(C)(N)C(O)C(C)O3)Oc3ccc(cc3Cl)C2O)c2ccc(O)c(c2)-c2c(O)cc(O)cc21)NC(=O)C(CCCCN)NC(=O)C(CCCCN)NC(=O)CCCCCCCCCCCc1ccccc1 (stereo not drawn) [MCC_000511],xxxxx (xxxxx = <0.01),xxxxx (xxxxx = <0.01),xxx (xxx = 0.1-<1)
CCCCCCCCC(=O)N[C@@H](CCCNC(=N)N)C(=O)N[C@@H](CCCCNC(=O)[C@H]1NC(=O)[C@H]2NC(=O)[C@H](NC(=O)[C@@H]3NC(=O)[C@H](CC(N)=O)NC(=O)[C@H](NC(=O)[C@@H](CC(C)C)NC)[C@H](O)c4ccc(c(Cl)c4)Oc4cc3cc(c4O[C@@H]3O[C@H](CO)[C@@H](O)[C@H](O)[C@H]3O[C@H]3C[C@](C)(N)[C@H](O)[C@H](C)O3)Oc3ccc(cc3Cl)[C@H]2O)c2ccc(O)c(c2)-c2c(O)cc(O)cc21)C(=O)O [MCC_007385],xxx (xxx = 0.1-<1),xxx (xxx = 0.1-<1),x (x = >4)
CCCCCC1CCC(C(=O)NC(CCCCN)C(=O)NC(CCCCN)C(=O)NCCCNC(=O)C2NC(=O)C3NC(=O)C(NC(=O)C4NC(=O)C(CC(N)=O)NC(=O)C(NC(=O)C(CC(C)C)NC)C(O)c5ccc(c(Cl)c5)Oc5cc4cc(c5OC4OC(CO)C(O)C(O)C4OC4CC(C)(N)C(O)C(C)O4)Oc4ccc(cc4Cl)C3O)c3ccc(O)c(c3)-c3c(O)cc(O)cc32)CC1 (stereo not drawn) [MCC_005485],xxxxx (xxxxx = <0.01),xxxxx (xxxxx = <0.01),xx (xx = 1-4)
CCCCCCCC(=O)N[C@@H](CCCCN)C(=O)N[C@@H](CCCCN)C(=O)N[C@@H](CCCCNC(=O)[C@H]1NC(=O)[C@H]2NC(=O)[C@H](NC(=O)[C@@H]3NC(=O)[C@H](CC(N)=O)NC(=O)[C@H](NC(=O)[C@@H](CC(C)C)NC)[C@H](O)c4ccc(c(Cl)c4)Oc4cc3cc(c4O[C@@H]3O[C@H](CO)[C@@H](O)[C@H](O)[C@H]3O[C@H]3C[C@](C)(N)[C@H](O)[C@H](C)O3)Oc3ccc(cc3Cl)[C@H]2O)c2ccc(O)c(c2)-c2c(O)cc(O)cc21)C(=O)O [MCC_005225],xx (xx = 1-4),xx (xx = 1-4),x (x = >4)
CCCCCCCCCCC(=O)N[C@@H](CCCCN)C(=O)N[C@@H](CCCCN)C(=O)N[C@@H](CCCCN)C(=O)N[C@@H](CCCCNC(=O)[C@H]1NC(=O)[C@H]2NC(=O)[C@H](NC(=O)[C@@H]3NC(=O)[C@H](CC(N)=O)NC(=O)[C@H](NC(=O)[C@@H](CC(C)C)NC)[C@H](O)c4ccc(c(Cl)c4)Oc4cc3cc(c4O[C@@H]3O[C@H](CO)[C@@H](O)[C@H](O)[C@H]3O[C@H]3C[C@](C)(N)[C@H](O)[C@H](C)O3)Oc3ccc(cc3Cl)[C@H]2O)c2ccc(O)c(c2)-c2c(O)cc(O)cc21)C(=O)NC [MCC_000309],xxxxx (xxxxx = <0.01),xxxxx (xxxxx = <0.01),xxx (xxx = 0.1-<1)
CNC(=O)C(CCCCNC(=O)C1NC(=O)C2NC(=O)C(NC(=O)C3NC(=O)C(CC(N)=O)NC(=O)C(NC(=O)C(CC(C)C)NC)C(O)c4ccc(c(Cl)c4)Oc4cc3cc(c4OC3OC(CO)C(O)C(O)C3OC3CC(C)(N)C(O)C(C)O3)Oc3ccc(cc3Cl)C2O)c2ccc(O)c(c2)-c2c(O)cc(O)cc21)NC(=O)C(CCCCN)NC(=O)C(CCCCNC(=O)CCCCCc1ccccc1)NC(=O)CCCCCc1ccccc1 (stereo not drawn) [MCC_000508],xxxxx (xxxxx = <0.01),xxxxx (xxxxx = <0.01),xx (xx = 1-4)

# The remaining lines, values ahead:
Minimum Inhibitory Concentration (MIC) Staph. aureus ATCC43300 [1],Minimum Inhibitory Concentration (MIC) S. pneumoniae ATCC 700677 [2],Minimum Inhibitory Concentration (MIC) E. faecium ATCC51559 [3],SMILES
xxxxx (xxxxx = <0.01),xxxxx (xxxxx = <0.01),xxx (xxx = 0.1-<1),CCCCCCCCCCCC(=O)N[C@@H](CCCCN)C(=O)N[C@@H](CCCCN)C(=O)NCCCNC(=O)[C@H]1NC(=O)[C@H]2NC(=O)[C@H](NC(=O)[C@@H]3NC(=O)[C@H](CC(N)=O)NC(=O)[C@H](NC(=O)[C@@H](CC(C)C)NC)[C@H](O)c4ccc(c(Cl)c4)Oc4cc3cc(c4O[C@@H]3O[C@H](CO)[C@@H](O)[C@H](O)[C@H]3O[C@H]3C[C@](C)(N)[C@H](O)[C@H](C)O3)Oc3ccc(cc3Cl)[C@H]2O)c2ccc(O)c(c2)-c2c(O)cc(O)cc21 [MCC_000978]
xxxx (xxxx = 0.01-<0.1),xxxxxx,xxx (xxx = 0.1-<1),CNC(=O)C(CCCCNC(=O)C1NC(=O)C2NC(=O)C(NC(=O)C3NC(=O)C(CC(N)=O)NC(=O)C(NC(=O)C(CC(C)C)NC)C(O)c4ccc(c(Cl)c4)Oc4cc3cc(c4OC3OC(CO)C(O)C(O)C3OC3CC(C)(N)C(O)C(C)O3)Oc3ccc(cc3Cl)C2O)c2ccc(O)c(c2)-c2c(O)cc(O)cc21)NC(=O)C(CCCCN)NC(=O)C(CCCCNC(=O)c1ccc(Oc2ccc(Cl)cc2)cc1)NC(=O)c1ccc(Oc2ccc(Cl)cc2)cc1 (stereo not drawn) [MCC_000517]
x (x = >4),x (x = >4),x (x = >4),CCCCCCCCCCCCCC(=O)NCCCC[C@H](NC(=O)CCCCCCCCCCCCC)C(=O)N[C@@H](CCCCN)C(=O)N[C@@H](CCCCN)C(=O)N[C@@H](CCCCNC(=O)[C@H]1NC(=O)[C@H]2NC(=O)[C@H](NC(=O)[C@@H]3NC(=O)[C@H](CC(N)=O)NC(=O)[C@H](NC(=O)[C@@H](CC(C)C)NC)[C@H](O)c4ccc(c(Cl)c4)Oc4cc3cc(c4O[C@@H]3O[C@H](CO)[C@@H](O)[C@H](O)[C@H]3O[C@H]3C[C@](C)(N)[C@H](O)[C@H](C)O3)Oc3ccc(cc3Cl)[C@H]2O)c2ccc(O)c(c2)-c2c(O)cc(O)cc21)C(=O)NC [MCC_000771]
xxx (xxx = 0.1-<1),xx (xx = 1-4),x (x = >4),CCCCCCCCC(=O)NC(CCCC[N+](C)(C)C)C(=O)NCCCNC(=O)C1NC(=O)C2NC(=O)C(NC(=O)C3NC(=O)C(CC(N)=O)NC(=O)C(NC(=O)C(CC(C)C)NC)C(O)c4ccc(c(Cl)c4)Oc4cc3cc(c4OC3OC(CO)C(O)C(O)C3OC3CC(C)(N)C(O)C(C)O3)Oc3ccc(cc3Cl)C2O)c2ccc(O)c(c2)-c2c(O)cc(O)cc21 (stereo not drawn) [MCC_007388]
xxxx (xxxx = 0.01-<0.1),xxxx (xxxx = 0.01-<0.1),xx (xx = 1-4),CCCCCCCNc1ccc(C(=O)N[C@@H](CCCCN)C(=O)N[C@@H](CCCCN)C(=O)N[C@@H](CCCCNC(=O)[C@H]2NC(=O)[C@H]3NC(=O)[C@H](NC(=O)[C@@H]4NC(=O)[C@H](CC(N)=O)NC(=O)[C@H](NC(=O)[C@@H](CC(C)C)NC)[C@H](O)c5ccc(c(Cl)c5)Oc5cc4cc(c5O[C@@H]4O[C@H](CO)[C@@H](O)[C@H](O)[C@H]4O[C@H]4C[C@](C)(N)[C@H](O)[C@H](C)O4)Oc4ccc(cc4Cl)[C@H]3O)c3ccc(O)c(c3)-c3c(O)cc(O)cc32)C(N)=O)cc1 [MCC_004821]
xxxx (xxxx = 0.01-<0.1),xxxx (xxxx = 0.01-<0.1),xx (xx = 1-4),CCCCCC1CCC(C(=O)N[C@@H](CCCCN)C(=O)N[C@@H](CCCCN)C(=O)N[C@@H](CCCCNC(=O)[C@H]2NC(=O)[C@H]3NC(=O)[C@H](NC(=O)[C@@H]4NC(=O)[C@H](CC(N)=O)NC(=O)[C@H](NC(=O)[C@@H](CC(C)C)NC)[C@H](O)c5ccc(c(Cl)c5)Oc5cc4cc(c5O[C@@H]4O[C@H](CO)[C@@H](O)[C@H](O)[C@H]4O[C@H]4C[C@](C)(N)[C@H](O)[C@H](C)O4)Oc4ccc(cc4Cl)[C@H]3O)c3ccc(O)c(c3)-c3c(O)cc(O)cc32)C(=O)O)CC1 (stereo partly drawn) [MCC_005503]
xxxx (xxxx = 0.01-<0.1),xxxx (xxxx = 0.01-<0.1),xxx (xxx = 0.1-<1),CCCCCCCCCCCN1CCC(C(=O)N[C@@H](CCCCN)C(=O)N[C@@H](CCCCN)C(=O)N[C@@H](CCCCNC(=O)[C@H]2NC(=O)[C@H]3NC(=O)[C@H](NC(=O)[C@@H]4NC(=O)[C@H](CC(N)=O)NC(=O)[C@H](NC(=O)[C@@H](CC(C)C)NC)[C@H](O)c5ccc(c(Cl)c5)Oc5cc4cc(c5O[C@@H]4O[C@H](CO)[C@@H](O)[C@H](O)[C@H]4O[C@H]4C[C@](C)(N)[C@H](O)[C@H](C)O4)Oc4ccc(cc4Cl)[C@H]3O)c3ccc(O)c(c3)-c3c(O)cc(O)cc32)C(N)=O)CC1 [MCC_004818]
xxxxx (xxxxx = <0.01),xxxx (xxxx = 0.01-<0.1),xx (xx = 1-4),CCCCCCCCCCC(=O)N[C@@H](CCCCN)C(=O)N[C@@H](CCCCN)C(=O)N[C@@H](CCCCN)C(=O)NCCNC(=O)[C@H]1NC(=O)[C@H]2NC(=O)[C@H](NC(=O)[C@@H]3NC(=O)[C@H](CC(N)=O)NC(=O)[C@H](NC(=O)[C@@H](CC(C)C)NC)[C@H](O)c4ccc(c(Cl)c4)Oc4cc3cc(c4O[C@@H]3O[C@H](CO)[C@@H](O)[C@H](O)[C@H]3O[C@H]3C[C@](C)(N)[C@H](O)[C@H](C)O3)Oc3ccc(cc3Cl)[C@H]2O)c2ccc(O)c(c2)-c2c(O)cc(O)cc21 [MCC_005182]
